# Laboratory results from patent US20250161311A1, “SMALL MOLECULE DIRECTED URINARY BLADDER TISSUE REGENERATION” (Northwestern University, priority 2022, published 2025).
# Several values for one entry are separate records, joined by “and”; a condition that tells them apart may be missing. Equal values may be shown once.
# Assays:
# [1] = tested on: primary human UCs; test: SR1 treatment of primary human urothelial cells (UCs) in vitro, AhR/Ki-67 co-staining and manual counting; assay type: cell-based; settings: for peak number of nAhR+UCs: D7, means±SE
# Protocol: SR1 Treatment of UCs in vitro Equivalent numbers of primary human UCs were treated once with SR1 (150 nM, 200 nM, 250 nM, or untreated) and allowed to grow in culture for 13 days. […] An assortment of organ specific stem cells initially maintain a high nucleus/cytoplasm ratio which gradually decreases as the cell differentiates.
# [2] = tested on: regenerated bladder tissue; test: Regenerated bladder tissue muscle content (Trichrome) and urothelium width after cystectomy and POC scaffold augmentation; assay type: in vivo, nude rats; settings: 10 weeks post-augmentation, means±SE
# Protocol: SR1 Induces Bladder Tissue Regeneration in vivo—In the following in vivo studies, nude rats underwent an approximate 60-70% bladder cystectomy and were augmented with a POC scaffold and then: 1) instilled with saline (Saline); 2) instilled with 300 nM SR1 (SR1:1×/week for 2 weeks); or 3) seeded with human MSC/CD34+HSCs (Cell-Seeded). Animals were sacrificed 10 weeks post-augmentation. The inventors have developed, characterized, and successfully utilized CBBs (POC) in bladder regenerative settings over the last 10 years. The inventors' established human MSC/CD34+HSC seeded POC scaffold bladder augmentation model was utilized in this study to directly compare specific regenerative bladder biological metrics against SR1 treated animals to determine whether SR1 could be used in lieu of MSCs and CD34+HSCs for bladder tissue regeneration. Muscle to collagen ratios are indicative of overall bladder tissue regeneration. […] Normal bladder tissue has an approximate 1:1 to muscle to collagen. There was no statistical difference with regards to muscle regeneration between the two groups. […] This included abnormal voiding, incontinence and subsequent infection, bladder distension, ureteral or renal dysfunction, and […]. […]
# [3] = tested on: regenerated bladder tissue; test: Bladder tissue vascularization and peripheral nerve regeneration in vivo (IF staining); design: species or system nude rats; settings: 10 weeks post-augmentation
# Protocol: SR1 Induces Bladder Tissue Regeneration in vivo—In the following in vivo studies, nude rats underwent an approximate 60-70% bladder cystectomy and were augmented with a POC scaffold and then: 1) instilled with saline (Saline); 2) instilled with 300 nM SR1 (SR1:1×/week for 2 weeks); or 3) seeded with human MSC/CD34+HSCs (Cell-Seeded). Animals were sacrificed 10 weeks post-augmentation. The inventors have developed, characterized, and successfully utilized CBBs (POC) in bladder regenerative settings over the last 10 years. The inventors' established human MSC/CD34+HSC seeded POC scaffold bladder augmentation model was utilized in this study to directly compare specific regenerative bladder biological metrics against SR1 treated animals to determine whether SR1 could be used in lieu of MSCs and CD34+HSCs for bladder tissue regeneration. Bladder instillation of SR1 promoted vascularization of augmented bladders along the periphery and core of grafts. […] The level of tissue vascularization may be increased by changing the concentration of SR1 instilled and/or the dosing regimen.
# [4] = tested on: rat bladders; test: Rat bladder urodynamic studies (UDS); assay type: in vivo, nude rats; settings: for bladder compliance: compliant >60%; for leak point pressure (LPP): normal rat ~40
# Protocol: SR1 Induces Bladder Tissue Regeneration in vivo—In the following in vivo studies, nude rats underwent an approximate 60-70% bladder cystectomy and were augmented with a POC scaffold and then: 1) instilled with saline (Saline); 2) instilled with 300 nM SR1 (SR1:1×/week for 2 weeks); or 3) seeded with human MSC/CD34+HSCs (Cell-Seeded). Animals were sacrificed 10 weeks post-augmentation. The inventors have developed, characterized, and successfully utilized CBBs (POC) in bladder regenerative settings over the last 10 years. The inventors' established human MSC/CD34+HSC seeded POC scaffold bladder augmentation model was utilized in this study to directly compare specific regenerative bladder biological metrics against SR1 treated animals to determine whether SR1 could be used in lieu of MSCs and CD34+HSCs for bladder tissue regeneration. Rat Bladder Urodynamic Studies (UDS) Rat bladders were filled with saline until a bladder contraction occurred (pre- and 10 weeks post-augmentation). Bladder pressures rose during the filling until bladder contractions occurred at intravesical pressures of 25-40 cm H2O. Saline instilled animals led to a slight decrease in voiding pressures and decreased bladder compliance (FIG. 4A). SR1 instilled animals led to a decrease in intravesical pressures during voiding from 40 to 25 cm H2O (pre-augmentation to post-augmentation, respectively) with increased bladder compliance. […] With regards to leak point pressures (LPP); Saline, SR1 and Cell-Seeded groups (pre/post aug) were: 39.49±1.35/46.48±2.42; 39.66±0.81/37.1±1.47; 38.6±1.41/35.5±2.40 cm H2O, respectively. Compliance values for the same groups were: 68.77±2.49/39.3±8.55; 69.57±1.95/72.38±3.13; 46.23±12.9/89.59±1.32 percent, respectively. Normal LPP for rat is ˜40 cm H2O and compliant bladders are defined at >60%. Percent bladder capacity at 10 weeks was also measured (FIG. 4B).
# [5] = In vitro release profile of SR1 coupled to POC scaffolds, measured by spectroscopy; assay type: physicochemical
# Protocol: SR1 was coupled to POC (poly 1,8 octane diol co-citrate) scaffolds and its in vitro release profile was measured by spectroscopy, based upon the aromatic ring structures contained within SR1 (FIG. 5A). […] For pilot in vivo studies, rats underwent an ˜70% cystectomy followed by augmentation with POC or POC/SR1 (1 mM SR1). POC animals were instilled with saline once at the beginning of the study and all animals were euthanized at 4 weeks post-augmentation. […] Therefore, the inventor concludes that coupling of SR1 to a scaffold, e.g., a solid support, is an effective means of delivery of SR1 to subjects in need thereof.
structure (smiles),measurement,setting,value
"CC(C)n1cnc2c(NCCc3ccc(O)cc3)nc(-c3csc4ccccc34)nc21 [SR1, stemregenin 1]",peak number of nAhR+UCs,"[1]; 150 nM SR1, treated once",159.75±8.44 cells
same,peak number of nAhR+UCs,"[1]; 200 nM SR1, treated once",310.75±28.73 cells
same,peak number of nAhR+UCs,"[1]; 250 nM SR1, treated once",342.75±20.97 cells
same,expansion of nAhR+/Ki-67+UCs compared to untreated,[1]; D7,~6 ×
same,UCs with higher nucleus/cytoplasm ratios,"[1]; nAhR+UCs, D7, 200 nM",modest increase
same,muscle content of regenerated bladder tissue,[2]; SR1 300 nM instilled 1×/week for 2 weeks,~50% and 47.00±1.81%
same,urothelium width,[2]; unmanipulated rats 50-70 μm,52.98±2.55 μm
same,vascularization of regenerated bladder tissue,[3]; means±SE,3.60±0.24%
same,peripheral nerve regeneration (βIII tubulin IF staining),[3]; core and throughout the graft,abundance of peripheral nerve regeneration
same,intravesical pressure during voiding,[4]; 10 weeks post-augmentation,25 cm H2O
same,bladder compliance,[4]; 10 weeks post-augmentation,72.38±3.13%
same,leak point pressure (LPP),[4]; 10 weeks post-augmentation,37.1±1.47 cm H2O
same,intravesical pressure during voiding,[4]; pre-augmentation (baseline),40 cm H2O
same,bladder compliance,[4]; pre-augmentation (baseline),69.57±1.95%
same,leak point pressure (LPP),[4]; pre-augmentation (baseline),39.66±0.81 cm H2O
same,release profile of SR1 from POC scaffolds,"[5]; 1 or 2 mM starting concentrations, over 30 days, compared to POC scaffolds in saline",gradual release
same,"cumulative release of SR1 from POC scaffolds, fold higher with 2 mM SR1","[5]; 30 day time point, 2 mM versus 1 mM starting concentration",~1.4 ×
